According to ChEMBL document CHEMBL1130019, “Discovery of potent isoxazoline glycoprotein IIb/IIIa receptor antagonists” (J Med Chem, 1997):
One block for each compound: values may come before it.

Key:
[1] = target: T1, Integrin alpha-IIb/beta-3 (Homo sapiens, UniProt P05106+P08514); assay: Inhibition of human platelet aggregation induced by ADP at 100 uM; type: functional
[2] = target: Integrin alpha-4/beta-1 (Homo sapiens, UniProt P05556+P13612); assay: Inhibition of VLA-4 integrin alpha4-beta1 interaction with VCAM; type: protein-complex assay
[3] = target: T1, Integrin alpha-IIb/beta-3; assay: Inhibition of Fibrinogen Receptor integrin alphaIIb-beta3 in ELISA; type: protein-complex assay
Target sequence in this assay (P05106 27-788 limits assumed): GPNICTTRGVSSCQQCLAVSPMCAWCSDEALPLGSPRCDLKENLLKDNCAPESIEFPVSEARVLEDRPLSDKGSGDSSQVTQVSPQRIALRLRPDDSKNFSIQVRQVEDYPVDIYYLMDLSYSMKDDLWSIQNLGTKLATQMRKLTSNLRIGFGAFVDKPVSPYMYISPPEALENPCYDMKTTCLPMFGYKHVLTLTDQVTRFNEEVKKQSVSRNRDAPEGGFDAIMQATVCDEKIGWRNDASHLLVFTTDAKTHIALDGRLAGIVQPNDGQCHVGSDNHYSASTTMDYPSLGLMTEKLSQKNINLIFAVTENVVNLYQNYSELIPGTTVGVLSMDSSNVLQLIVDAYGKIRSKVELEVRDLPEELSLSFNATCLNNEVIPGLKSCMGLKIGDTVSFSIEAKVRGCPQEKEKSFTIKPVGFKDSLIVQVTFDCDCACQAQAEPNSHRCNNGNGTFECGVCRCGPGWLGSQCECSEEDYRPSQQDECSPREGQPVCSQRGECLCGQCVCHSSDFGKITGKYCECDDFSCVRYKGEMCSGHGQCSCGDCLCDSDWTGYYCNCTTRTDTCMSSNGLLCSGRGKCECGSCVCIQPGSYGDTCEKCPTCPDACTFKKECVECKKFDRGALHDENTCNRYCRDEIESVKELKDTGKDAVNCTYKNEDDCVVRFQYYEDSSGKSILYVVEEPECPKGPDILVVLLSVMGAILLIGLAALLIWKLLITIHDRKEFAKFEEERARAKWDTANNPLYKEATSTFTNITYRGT
Target sequence in this assay (P08514 32-887 limits assumed): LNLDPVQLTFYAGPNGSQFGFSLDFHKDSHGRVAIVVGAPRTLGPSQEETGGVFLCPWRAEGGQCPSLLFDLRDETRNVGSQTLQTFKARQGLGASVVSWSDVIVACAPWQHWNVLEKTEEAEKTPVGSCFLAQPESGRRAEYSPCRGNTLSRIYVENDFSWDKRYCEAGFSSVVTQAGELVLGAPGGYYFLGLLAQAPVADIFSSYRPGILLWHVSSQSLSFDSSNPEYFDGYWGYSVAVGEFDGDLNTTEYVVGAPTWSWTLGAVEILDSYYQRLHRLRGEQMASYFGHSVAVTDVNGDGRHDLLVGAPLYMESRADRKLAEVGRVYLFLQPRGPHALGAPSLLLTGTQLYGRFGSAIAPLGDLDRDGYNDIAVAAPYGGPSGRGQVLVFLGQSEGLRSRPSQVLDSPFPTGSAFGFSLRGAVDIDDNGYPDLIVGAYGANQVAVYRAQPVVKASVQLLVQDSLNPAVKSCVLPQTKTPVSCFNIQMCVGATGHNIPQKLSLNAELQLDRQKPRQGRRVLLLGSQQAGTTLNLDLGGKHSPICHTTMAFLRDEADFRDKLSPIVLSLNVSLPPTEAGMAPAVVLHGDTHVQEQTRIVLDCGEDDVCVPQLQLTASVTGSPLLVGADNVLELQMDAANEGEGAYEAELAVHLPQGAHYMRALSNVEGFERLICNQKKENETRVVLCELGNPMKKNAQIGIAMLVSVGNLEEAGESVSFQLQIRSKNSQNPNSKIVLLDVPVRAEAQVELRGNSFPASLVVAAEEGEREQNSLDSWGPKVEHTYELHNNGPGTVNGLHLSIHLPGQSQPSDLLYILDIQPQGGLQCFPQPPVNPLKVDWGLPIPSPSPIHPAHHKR
Target sequence in this assay (P08514 891-1039 limits assumed): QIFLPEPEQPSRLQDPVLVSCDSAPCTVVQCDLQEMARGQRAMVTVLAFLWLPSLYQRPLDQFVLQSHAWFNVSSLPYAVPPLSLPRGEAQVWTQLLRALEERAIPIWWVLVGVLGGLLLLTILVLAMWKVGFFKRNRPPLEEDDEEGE

[4] = target: Integrin alpha-5/beta-1 (Homo sapiens, UniProt P05556+P08648); assay: Inhibition of interaction between HUVEC cells and fibronectin; type: cell-based
Sequence of Integrin alpha-5/beta-1 (P05556 21-798 limits assumed): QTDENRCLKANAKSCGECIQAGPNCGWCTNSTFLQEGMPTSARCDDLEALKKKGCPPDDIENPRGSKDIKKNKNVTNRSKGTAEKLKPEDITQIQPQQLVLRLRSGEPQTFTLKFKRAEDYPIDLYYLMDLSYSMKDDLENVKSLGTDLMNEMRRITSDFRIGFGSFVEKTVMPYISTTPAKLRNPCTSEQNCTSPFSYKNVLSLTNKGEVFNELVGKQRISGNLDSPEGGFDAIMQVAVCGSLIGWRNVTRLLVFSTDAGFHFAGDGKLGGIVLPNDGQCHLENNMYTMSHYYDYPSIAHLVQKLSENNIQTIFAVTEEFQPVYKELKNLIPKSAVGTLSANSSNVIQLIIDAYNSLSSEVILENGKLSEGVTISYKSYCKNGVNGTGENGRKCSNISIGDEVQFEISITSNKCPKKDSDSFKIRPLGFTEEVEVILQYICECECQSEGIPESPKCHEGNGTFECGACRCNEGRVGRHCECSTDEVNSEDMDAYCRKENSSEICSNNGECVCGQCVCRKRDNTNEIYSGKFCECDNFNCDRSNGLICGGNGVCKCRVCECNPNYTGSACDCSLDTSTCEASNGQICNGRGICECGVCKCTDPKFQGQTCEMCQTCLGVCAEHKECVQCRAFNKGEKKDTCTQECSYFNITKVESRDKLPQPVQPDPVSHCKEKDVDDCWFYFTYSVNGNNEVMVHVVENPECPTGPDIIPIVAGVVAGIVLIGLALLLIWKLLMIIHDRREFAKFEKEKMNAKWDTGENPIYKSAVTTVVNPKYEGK
Sequence of Integrin alpha-5/beta-1 (P08648 42-894 limits assumed): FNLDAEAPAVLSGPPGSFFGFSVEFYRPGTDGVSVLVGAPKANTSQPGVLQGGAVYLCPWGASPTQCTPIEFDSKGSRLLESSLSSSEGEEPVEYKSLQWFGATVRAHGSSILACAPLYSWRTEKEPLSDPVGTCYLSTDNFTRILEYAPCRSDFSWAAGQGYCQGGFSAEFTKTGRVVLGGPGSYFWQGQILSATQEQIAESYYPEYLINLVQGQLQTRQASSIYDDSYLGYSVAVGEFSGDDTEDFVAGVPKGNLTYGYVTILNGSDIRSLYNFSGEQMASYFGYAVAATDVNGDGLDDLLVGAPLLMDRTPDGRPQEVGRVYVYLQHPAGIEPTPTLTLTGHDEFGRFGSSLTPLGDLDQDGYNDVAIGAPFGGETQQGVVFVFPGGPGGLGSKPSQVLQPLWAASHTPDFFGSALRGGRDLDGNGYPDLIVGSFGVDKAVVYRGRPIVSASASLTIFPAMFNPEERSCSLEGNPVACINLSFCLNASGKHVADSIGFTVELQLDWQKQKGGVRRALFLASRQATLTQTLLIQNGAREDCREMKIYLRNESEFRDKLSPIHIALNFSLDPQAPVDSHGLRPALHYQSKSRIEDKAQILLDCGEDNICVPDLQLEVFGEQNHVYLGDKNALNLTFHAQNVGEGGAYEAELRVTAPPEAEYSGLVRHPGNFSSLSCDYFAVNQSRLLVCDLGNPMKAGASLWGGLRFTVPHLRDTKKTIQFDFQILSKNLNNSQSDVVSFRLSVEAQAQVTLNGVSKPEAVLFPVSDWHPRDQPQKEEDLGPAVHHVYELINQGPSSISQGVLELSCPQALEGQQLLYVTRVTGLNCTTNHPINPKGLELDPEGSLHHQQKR
Sequence of Integrin alpha-5/beta-1 (P08648 895-1049 limits assumed): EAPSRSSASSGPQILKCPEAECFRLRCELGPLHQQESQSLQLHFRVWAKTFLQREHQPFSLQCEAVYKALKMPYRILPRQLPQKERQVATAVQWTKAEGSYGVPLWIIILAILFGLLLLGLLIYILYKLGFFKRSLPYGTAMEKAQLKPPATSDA

[5] = target: T2, Integrin alpha-M/beta-2 (Homo sapiens, UniProt P05107+P11215); assay: Inhibition of Mac-1 integrin (alphaM-beta2); type: protein-complex assay
T2 sequence (P05107 23-769 limits assumed, other chains not shown): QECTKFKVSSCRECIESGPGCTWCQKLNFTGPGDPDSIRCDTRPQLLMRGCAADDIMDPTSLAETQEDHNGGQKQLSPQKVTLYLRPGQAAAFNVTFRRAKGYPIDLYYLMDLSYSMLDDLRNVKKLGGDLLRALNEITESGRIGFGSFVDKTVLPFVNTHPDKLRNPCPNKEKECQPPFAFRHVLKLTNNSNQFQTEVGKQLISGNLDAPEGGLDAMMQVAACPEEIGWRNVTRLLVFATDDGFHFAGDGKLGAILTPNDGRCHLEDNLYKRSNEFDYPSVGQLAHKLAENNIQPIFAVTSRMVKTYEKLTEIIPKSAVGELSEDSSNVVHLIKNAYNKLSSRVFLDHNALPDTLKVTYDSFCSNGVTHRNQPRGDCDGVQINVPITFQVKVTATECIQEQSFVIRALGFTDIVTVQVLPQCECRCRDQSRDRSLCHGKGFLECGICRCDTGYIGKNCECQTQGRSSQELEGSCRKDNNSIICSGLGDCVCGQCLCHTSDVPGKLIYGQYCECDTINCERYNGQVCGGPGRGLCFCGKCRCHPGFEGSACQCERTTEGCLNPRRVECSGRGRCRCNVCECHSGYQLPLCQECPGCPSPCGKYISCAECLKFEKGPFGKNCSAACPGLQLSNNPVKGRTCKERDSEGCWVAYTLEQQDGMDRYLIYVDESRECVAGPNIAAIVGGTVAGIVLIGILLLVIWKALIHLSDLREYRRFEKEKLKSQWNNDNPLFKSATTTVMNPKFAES

[6] = target: T2, Integrin alpha-M/beta-2; assay: Inhibition of Mac-1 interaction with ICAM; type: protein-complex assay
[7] = target: T1, Integrin alpha-IIb/beta-3; assay: Inhibition of [125I]fibrinogen binding to activated human platelets; type: functional
Target sequence in this assay (P05106 27-788 limits assumed): as the sequence (P05106 27-788 limits assumed) above
Target sequence in this assay (P08514 32-887 limits assumed): as the sequence (P08514 32-887 limits assumed) above
Target sequence in this assay (P08514 891-1039 limits assumed): as the sequence (P08514 891-1039 limits assumed) above

[8] = Inhibition of interaction between HUVEC cells and Vitronectin; type: cell-based, Homo sapiens
[9] = system: Integrin alpha-IIb/beta-3 (Canis lupus familiaris); assay: Inhibition of ADP-mediated platelet aggregation over 6 hr; conditions: concentration not given here

Compound: N=C(N)c1ccc(C2=NOC(CC(=O)NCCC(=O)O)C2)cc1 (stereo unspecified)
IC50 [2]: > 100 µM
IC50 [3]: 0.0011 µM
IC50 [4]: 180 µM
IC50 [5]: > 100 µM
IC50 [6]: 100 µM
IC50 [7]: 0.01 µM
IC50 [8]: 200 µM

Compound: CCOC(=O)CCNC(=O)CC1CC(c2ccc(C(=N)N)cc2)=NO1 (stereo unspecified)
inhibition [9]: 90%

Second part, the compound after the results:

inhibition [1]: 24%
Compound: O=C(O)CCCN1C(=O)CC2(CC(CCCC3CCNCC3)=NO2)C1=O (stereo unspecified)

inhibition [1]: 16.3%
Compound: O=C(O)CCCN1C(=O)CC2(CC(CCC3CCNCC3)=NO2)C1=O (stereo unspecified)

inhibition [1]: 16.6%
Compound: O=C(O)CCN1C(=O)CC2(CC(CCC3CCNCC3)=NO2)C1=O (stereo unspecified)
